Source: patent US6191282A, “Substituted 5-membered ring heterocycles comprising a bicyclic or tricyclic group their preparation and their use” (Hoechst Marion Roussel, priority 1993, dated 2001)
Where two headings read alike, the source gives them in different places.

Tested on: gel-filtered human thrombocytes
Assay: Inhibition of the aggregation of gel-filtered human thrombocytes following stimulation with ADP or thrombin (Test method 1)
Assay type: cell-based
Settings: 1 mg/ml fibrinogen, 37° C., GFP from 2-4 donors
Description: As a functional test, measurement is made of the inhibition of the aggregation of gel-filtered human thrombocytes, following stimulation with ADP or thrombin, by the compounds according to the invention.
For this purpose, human thrombocytes were isolated from platelet-rich plasma (PRP) by gel filtration on Sepharose 2 B. The resulting suspension of gel-filtered platelets (GFP), which contained 3×10^8 platelets/ml, was activated in the presence of 1 mg/ml of fibrinogen either with 10 μM ADP or with 0.1 U/ml thrombin, and stirred in an aggregometer (PAP 4, Biodata, Hatboro, Penna., USA) at 37° C. and at 1000 revolutions per minute. The maximum increase in the translucency is taken as a measure of the aggregation. The test substances were added to the GFP at 37° C. and 2 min before activating with ADP or thrombin.

[1] = Homo sapiens, ADP-stimulated (10 μM ADP), read-out: IC50, inhibition of thrombocyte aggregation, ADP-stimulated
[2] = Homo sapiens, Thrombin-stimulated (0.1 U/ml thrombin), read-out: IC50, inhibition of thrombocyte aggregation, Thrombin-stimulated

Structure (SMILES): CCCCS(=O)(=O)NC(CNC(=O)CN1C(=O)NC(C)(c2ccc(C(=N)N)cc2)C1=O)C(=O)O (racemic) [Example 32, (R,S)-3-(((R,S)-4-(4-(Aminoiminomethyl)phenyl)-4-methyl-2,5-dioxoimidazolidin-1-yl)acetylamino)-2-butylsulphonylaminopropionic acid]
- IC50 [1]: 200 nM
- IC50 [2]: 150 nM

Structure (SMILES): CC1(c2ccc(C(=N)N)cc2)NC(=O)N(CC(=O)NC(CC(=O)O)c2cccnc2)C1=O (racemic) [Example 47, (R,S)-3-(((R,S)-4-(4-(Aminoiminomethyl)phenyl)-4-methyl-2,5-dioxoimidazolidin-1-yl)acetylamino)-3-(3-pyridyl)propionic acid]
- IC50 [1]: 100 nM
- IC50 [2]: 150 nM

Structure (SMILES): CC1(c2ccc(C(=N)N)cc2)NC(=O)N(CC(=O)NC[C@H](NC(=O)OCc2ccccc2)C(=O)O)C1=O (stereo partly drawn) [Example 6, 3-(((R,S)-4-(4-(Aminoiminomethyl)phenyl)-4-methyl-2,5-dioxoimidazolidin-1-yl)acetylamino)-2-benzyloxycarbonylaminopropionic acid]
- IC50 [1]: 2500 nM
- IC50 [2]: 800 nM

Structure (SMILES): COc1cc(C(CC(=O)O)NC(=O)CN2C(=O)NC(C)(c3ccc(C(=N)N)cc3)C2=O)ccc1O (racemic) [Example 36, (R,S)-3-(((R,S)-4-(4-(Aminoiminomethyl)phenyl)-4-methyl-2,5-dioxoimidazolidin-1-yl)acetylamino)-3-(4-hydroxy-3-methoxyphenyl)propionic acid]
- IC50 [1]: 200 nM
- IC50 [2]: 150 nM

Structure (SMILES): CC1(c2ccc(C(=N)N)cc2)NC(=O)N(CC(=O)NC(CC(=O)O)c2cccc(C(=O)O)c2)C1=O (racemic) [Example 42, (R,S)-3-(((R,S)-4-(4-(Aminoiminomethyl)phenyl)-4-methyl-2,5-dioxoimidazolidin-1-yl)acetylamino)-3-(3-hydroxycarbonylphenyl)propionic acid]
- IC50 [1]: 300 nM
- IC50 [2]: 200 nM

Structure (SMILES): CCN1C(=O)N(CC(=O)NC(CC(=O)O)c2ccccc2)C(=O)C1(C)c1ccc(C(=N)N)cc1 (racemic) [Example 52, (R,S)-3-(((R,S)-4-(4-(Aminoiminomethyl)phenyl)-3-ethyl-4-methyl-2,5-dioxoimidazolidin-1-yl)acetylamino)-3-phenylpropionic acid]
- IC50 [1]: 500 nM
- IC50 [2]: 400 nM

Structure (SMILES): CC1(c2ccc(C(=N)N)cc2)NC(=O)N(CC(=O)N[C@@H](CC(=O)O)C(=O)NCC23CC4CC(CC(C4)C2)C3)C1=O (stereo partly drawn) [Example 70, (2-((R,S)-4-(4-(Aminoiminomethyl)phenyl)-4-methyl-2,5-dioxoimidazolidin-1-yl)acetyl)-L-aspartyl-(1-adamantylmethyl)amide]
- IC50 [1]: 65 nM
- IC50 [2]: 70 nM

Structure (SMILES): CCOc1ccc(C(CC(=O)O)NC(=O)CN2C(=O)NC(C)(c3ccc(C(=N)N)cc3)C2=O)cc1 (racemic) [Example 37, (R,S)-3-(((R,S)-4-(4-(Aminoiminomethyl)phenyl)-4-methyl-2,5-dioxoimidazolidin-1-yl)acetylamino)-3-(4-ethoxyphenyl)propionic acid]
- IC50 [1]: 100 nM
- IC50 [2]: 200 nM

Structure (SMILES): CCCCCC(=O)NC(CNC(=O)CN1C(=O)NC(C)(c2ccc(C(=N)N)cc2)C1=O)C(=O)O (racemic) [Example 30, (R,S)-3-(((R,S)-4-(4-(Aminoiminomethyl)phenyl)-4-methyl-2,5-dioxoimidazolidin-1-yl)acetylamino)-2-pentylcarbonylaminopropionic acid]
- IC50 [1]: 500 nM
- IC50 [2]: 400 nM

Structure (SMILES): CC1(c2ccc(C(=N)N)cc2)NC(=O)N(CC(=O)NC(CC(=O)O)c2ccc(O)cc2)C1=O (racemic) [Example 45, (R,S)-3-(((R,S)-4-(4-(Aminoiminomethyl)phenyl)-4-methyl-2,5-dioxoimidazolidin-1-yl)acetylamino)-3-(4-hydroxyphenyl)priopionic acid]
- IC50 [1]: 200 nM
- IC50 [2]: 200 nM

Structure (SMILES): CCCCCC(=O)NC(CNC(=O)CN1C(=O)N(C)C(C)(c2ccc(C(=N)N)cc2)C1=O)C(=O)O (racemic) [Example 31, (R,S)-3-(((R,S)-4-(4-(Aminoiminomethyl)phenyl)-3,4-dimethyl-2,5-dioxoimidazolidin-1-yl)acetylamino)-2-pentylcarbonylaminopropionic acid]
- IC50 [1]: 3000 nM
- IC50 [2]: 600 nM

Structure (SMILES): COc1cc(C(CC(=O)O)NC(=O)CN2C(=O)NC(C)(c3ccc(C(=N)N)cc3)C2=O)cc(OC)c1OC (racemic) [Example 44, (R,S)-3-(((R,S)-4-(4-(Aminoiminomethyl)phenyl)-4-methyl-2,5-dioxoimidazolidin-1-yl)acetylamino)-3-(3,4,5-trimethoxyphenyl)propionic acid]
- IC50 [1]: 400 nM
- IC50 [2]: 200 nM

Structure (SMILES): COC(=O)[C@@H](NC(=O)[C@H](CC(=O)O)NC(=O)CN1C(=O)NC(C)(c2ccc(C(=N)N)cc2)C1=O)c1ccccc1 (stereo partly drawn) [Example 23, ((R,S)-4-(4-(Aminoiminomethyl)phenyl)-4-methyl-2,5-dioxoimidazolidin-1-yl)acetyl-L-aspartyl-L-phenylglycine methyl ester]
- IC50 [1]: 30 nM
- IC50 [2]: 50 nM

Structure (SMILES): COc1ccc(C(CC(=O)O)NC(=O)CN2C(=O)NC(C)(c3ccc(C(=N)N)cc3)C2=O)cc1O (racemic) [Example 35, (R,S)-3-(((R,S)-4-(4-(Aminoiminomethyl)phenyl)-4-methyl-2,5-dioxoimidazolidin-1-yl)acetylamino)-3-(3-hydroxy-4-methoxyphenyl)propionic acid]
- IC50 [1]: 100 nM
- IC50 [2]: 300 nM

Structure (SMILES): CCCCS(=O)(=O)NC(CNC(=O)CN1C(=O)N(C)C(C)(c2ccc(C(=N)N)cc2)C1=O)C(=O)O (racemic) [Example 33, (R,S)-3-(((R,S)-4-(4-(Aminoiminomethyl)phenyl)-3,4-dimethyl-2,5-dioxoimidazolidin-1-yl)acetylamino)-2-butylsulphonylaminopropionic acid]
- IC50 [1]: 500 nM
- IC50 [2]: 200 nM

Structure (SMILES): CC1(c2ccc(C(=N)N)cc2)NC(=O)N(CC(=O)N[C@@H](CC(=O)O)C(=O)NC23CC4CC(CC(C4)C2)C3)C1=O (stereo partly drawn) [Example 68, (2-((R,S)-4-(4-(aminoiminomethyl)phenyl)-4-methyl-2,5-dioxoimidazolidin-1-yl)acetyl)-L-aspartyl-1-adamantylamide]
- IC50 [1]: 50 nM
- IC50 [2]: 45 nM

Structure (SMILES): CC(C)(C)C1(c2ccc(C(=N)N)cc2)NC(=O)N(CC(=O)N[C@@H](CC(=O)O)C(=O)N[C@H](C(=O)O)c2ccccc2)C1=O (some centres unmarked) [Example 29]
- IC50 [1]: 50 nM
- IC50 [2]: 40 nM

Structure (SMILES): CC1(c2ccc(C(=N)N)cc2)NC(=O)N(CC(=O)NC(CC(=O)O)c2cccc(OCc3ccccc3)c2)C1=O (racemic) [Example 41, (R,S)-3-(((R,S)-4-(4-(Aminoiminomethyl)phenyl)-4-methyl-2,5-dioxoimidazolidin-1-yl)acetylamino)-3-(3-benzyloxyphenyl)propionic acid]
- IC50 [1]: 100 nM
- IC50 [2]: 150 nM

Structure (SMILES): CC1(c2ccc(C(=N)N)cc2)NC(=O)N(CC(=O)N[C@H](CC(=O)O)c2ccccc2)C1=O (single isomer, unassigned) [Example 60, (R)-3-(((R or S)-4-(4-(aminoiminomethyl)phenyl)-4-methyl-2,5-dioxoimidazolidin-1-yl)acetylamino)-3-phenylpropionic acid]
- IC50 (ADP-stimulated (10 μM ADP), read-out: IC50, inhibition of thrombocyte aggregation, ADP-stimulated): 5000 nM
- IC50 (Thrombin-stimulated (0.1 U/ml thrombin), read-out: IC50, inhibition of thrombocyte aggregation, Thrombin-stimulated): 4000 nM
